Laboratory results published in paper PMC12505902, “Inhibitors of trehalose-6-phosphate synthase activity in fungal pathogens compromise thermal tolerance pathways” (mBio, 2025).

Target: T1, 6xHis-CaTps1 (Candida albicans, UniProt Q92410)
T1 construct: Briefly, the full-length; thrombin cleavage site (pET-28a linker) (N); made in house; host or cells: E. coli BL21(DE3)pLysS
T1 sequence (Q92410 1-478): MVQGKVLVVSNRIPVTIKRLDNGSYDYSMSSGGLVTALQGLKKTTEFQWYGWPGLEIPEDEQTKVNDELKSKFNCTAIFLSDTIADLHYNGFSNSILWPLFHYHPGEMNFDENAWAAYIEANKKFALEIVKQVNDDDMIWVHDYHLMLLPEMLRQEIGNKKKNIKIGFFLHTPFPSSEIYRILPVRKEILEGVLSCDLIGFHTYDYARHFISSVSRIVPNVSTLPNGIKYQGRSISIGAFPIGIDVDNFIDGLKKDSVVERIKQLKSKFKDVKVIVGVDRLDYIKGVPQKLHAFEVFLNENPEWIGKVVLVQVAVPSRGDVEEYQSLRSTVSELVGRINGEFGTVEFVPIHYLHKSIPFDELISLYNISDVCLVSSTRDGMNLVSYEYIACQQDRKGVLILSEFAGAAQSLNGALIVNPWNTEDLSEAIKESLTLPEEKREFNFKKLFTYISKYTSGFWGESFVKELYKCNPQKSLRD
Test: Spectrophotometric-coupled Tps1 enzyme activity assay
Type: biochemical, C. albicans
Conditions: 1 mM 4456dh, 4°C for 16 hours
Method: Fig 2 4456dh binds Tps1 and inhibits Tps1 activity. (A) Structure of 4456dh. (B and C) Glo-melt thermal shift assays reveal 4456dh destabilizes 6xHis-CaTps1 (B) and 6xHis-CnTps1 (C). The first derivative of the raw data was used to determine the melting temperature of 1 µM 6xHis-CaTps1 (B) and 1 µM 6xHis-CnTps1 (C) treated without (black) or with 2 mM 4456dh (red). […] The resulting dose-response curves were fitted to a one-site binding model to extract Kd values; the SD was calculated using the Kd values from each independent experiment (n = 3). (F) Tps1 enzyme activity assay with 5 µM 6xHis-CaTps1 (F) and 6xHis-CnTps1 (G) ±1 mM 4456dh. Error bars represent SE. […]
The ability of 4456dh to inhibit the activity of CaTps1 was tested using a spectrophotometric-coupled Tps1 enzyme assay, in which recombinant 6xHis-CaTps1 was incubated with 1 mM 4456dh at 4°C for 16 hours. […] Similarly, the effect of 1 mM 4456dh on 6xHis-CnTps1 activity was determined. […]
82 determined by SDS-PAGE analysis, were pooled and concentrated to 1 mg/mL for downstream […]
93 The data were acquired with MO.Control 1.5.3 (NanoTemper Technologies GmbH). Recorded
94 data were analyzed with MO.Affinity Analysis 2.2.7 (NanoTemper Technologies GmbH). […]
100 2X Glo-melt dye. Thermal denaturation was measured using an RT-PCR thermocycler (BioRad) […]
102 determined by identifying the inflection point of the derivative data. […]

## Cn1cc(-c2csc(NC(=O)Cc3ccccn3)n2)cn1 [Compound 4456dh]
  reduction of 6xHis-CaTps1 activity: approximately 30%
